Experimental findings from patent US20110319790A1, “PHARMACEUTICAL COMPOSITION AND SYSTEM FOR PERMEABILIZING FETAL MEMBRANES” (B.G. NEGEV TECHNOLOGIES AND APPLICATIONS LTD., priority 2008, published 2011) are described below.

This assay has as its system postpartum human fetal membranes. As to the kind of experiment: Permeability of postpartum human fetal membranes to FITC-Dextran in a vertical glass diffusion cell after incubation with a substance. The settings on record: FIG. 8, 30 minutes incubation, FITC-Dextran 77 KDa, maternal side facing donor compartment. The procedure: The permeability of postpartum human fetal membranes (obtained from Hillel Yaffe Medical Center, Israel) upon exposure to different substances was determined. The experimental set-up used is shown schematically in FIG. 7. […] The membrane 171 was first incubated with a substance 176 added to the donor compartment 173. After 30 minutes of incubation, the substance was removed from the donor compartment 173. The donor compartment was then washed with PBS, and the donor and receiver compartments were filled with 0.01M phosphate buffered Saline (PBS) 175. 5 mL of a 0.5 mg/mL Dextran solution in PBS (average molecular weight of the Dextran 77 KDa) conjugated to the fluorescent label FITC (fluorescein isothiocyanate-Dextran)) 179 was added to the donor compartment 173. The diffusion cell 172 was protected from light in order to prevent fluorescent bleaching of the FITC. 1 mL samples were withdrawn from the receiver compartment 174 at various times with constant stirring of the receiver compartment, and the concentration of the FITC in the samples was determined spectofluorimetrically.
From the rate of increase in the concentration of the fluorescence in the receiver compartment 174, the extent of permeability enhancement of the membrane, in comparison to a control experiment was calculated.

For the compound `CCCCCCCCCCCCCCCC[N+](C)(C)C.[Br-]` [Cetyl trimethylammonium bromide (CTAB), Cetyl trimethylammonium bromide], the “enhancement in permeability of the membrane compared to control” value (“enhancement … compared to control” below) (substance at 4%) is recorded as “Enhanced permeability”.

In the case of `CCCCCCCCCCCCOS(=O)(=O)[O-].[Na+]` [SLS, sodium lauryl sulfate], the “enhancement … compared to control” value (substance at 1%) is listed as “Enhanced permeability”.

`CC(C)CCCCCCCCCCCCCCC(=O)O` [iso-stearic acid]: where the note is “substance at 10%”, the “enhancement … compared to control” value is given as “Enhanced permeability”.

`CN1CCCC1=O` [N-methy-2-pyrrolidone (NMP), N-methy-2-pyrrolidone]: the “enhancement … compared to control” value (concentration not given) was “Enhanced permeability”.

Turning to `CCCCCCCC/C=C\CCCCCCCC(=O)O` [Oleic acid], the “enhancement … compared to control” value (substance at 1.5%) is “Enhanced permeability”.

Turning to `CCCCN1CCCCC1C(=O)Nc1c(C)cccc1C` (stereo not shown) [bupivacaine], where the note is “substance at 0.5%”, the “enhancement … compared to control” value is “Enhanced permeability”.

Consider `OCCO` [ethylene glycol], for which the “enhancement … compared to control” value (substance at 10%) is reported as “Enhanced permeability”.
